# Data reported in patent publication US4925870A, “Therapeutic use of proanthocyanidine A2 as a cytoprotective agent” (Inverni Della Beffa SpA, priority 1985, dated 1990).
# Entries after “also recorded” stand apart in the source; their conditions may differ.
# Columns and labels:
# [1] = test system: rat hepatic microsomes; assay: NADPH consumption by hepatic microsomes; assay type: biochemical; conditions: for IC50: NADPH 500 μM + Fe^2+ 20 μM + ADP 500 μM
# [2] = Healing (cicatrising) activity, general statement (topical and oral route, normal and steroid treated animals); conditions: in vivo
# [3] = Acute toxicity in the mouse; conditions: for LD50: mouse, in vivo
# Method: (§1) The acute toxicity of proanthocyanidine A2 was determined in the mouse and rat on administration by the oral and intreperitoneal routes.
# [4] = Wound healing activity by oral route in rats treated with prednisone; assay type: in vivo; conditions: for Surface after 3 days of administrations (m ± s.e.) / percent variation of surface in comparison with prednisone controls: oral; for percent variation of surface in comparison with prednisone controls: after 3 days
# Text: (§2) The triterpene fraction obtained from Centella asiatica (CATS), a well-known cicatrizant or healing agent widely used in some European countries, has been chosen as comparison drug.
# [5] = Activity on wound scar resistance in normal mice by oral route (force necessary for breaking a cutaneous scar); assay type: in vivo; conditions: n = 20
# Text: The method used was that of Sixth et al., Arzneim. Forsch. 18, 1460, 1968.
# [6] = Anti-ulcer activity after i.p. administration on ASA induced gastric ulcers in rats; assay type: in vivo; conditions: for Changes in U.I. in comparison with controls / No. of stomach without lesions / Ulceration index (U.I.) mean: i.p., n = 10
# Text: This activity is believed to be a consequence of its healing activity and microcirculation protecting activity.
# [7] = Capillary resistance in rats fed on vitamin P deprived diet; assay type: in vivo; conditions: for Percent increase (capillary resistance) in comparison with controls: n = 8
# Method: The latter was evaluated by the method of Charlier R. et al., Arch. Int. Physiol. Bioch.
# [8] = test system: rat hepatic microsomes; assay: In vitro inhibition of lipid peroxidation (MDA formation) on rat hepatic microsomes; assay type: biochemical; conditions: for IC50: in vitro, rat hepatic microsomes + NADPH + Fe^2+ ADP
# [9] = test system: rat brain; assay: Rat brain ex vivo anti-lipid peroxidation test
# Method: (§3) Proanthocyanidine A2 was assayed for anti-lipid peroxidation activity "in vitro" on rat brain homogenate according to the method of Saeed S. A. et al., Biochem. Soc. Trans 9, 442-443, 1981 and on rat hepatic microsomes according to the method of Jha H. C. et al., Biochem. Pharmacol. 34 , 1367-1369, 1985. […] This activity was confirmed on a rat brain "ex vivo" test.
# [10] = Acute toxicity on topical administration; conditions: administered topically
# [11] = test system: rat brain homogenate; assay: In vitro inhibition of lipid peroxidation (MDA formation) on rat brain homogenate; assay type: biochemical; conditions: for IC50: rat brain homogenate
# Method: as §3
# [12] = Wound healing activity on prednisone treated rats by topical application; assay type: in vivo
# Text: as §2
# [13] = Acute toxicity in the rat; conditions: in vivo
# Method: as §1
structure (smiles),measurement,setting,value
Oc1cc(O)c2c(c1)O[C@@]1(c3ccc(O)c(O)c3)Oc3cc(O)c4c(c3[C@@H]2[C@H]1O)O[C@H](c1ccc(O)c(O)c1)[C@H](O)C4 [Proanthocyanidine A2],IC50,[1],14000 nM
same,"column headed by drawing 3 (hepatic microsomes) (ratio of NADPH consumption IC50 to MDA formation IC50, by arithmetic)",[1]; hepatic microsomes,17.5
same,inhibiting activity on NADPH consumption (in words),"[1]; in vitro, hepatic microsomes",low inhibiting activity
same,healing activity (in words),[2],higher than that of known drugs employed in this therapeutic field; also recorded: manifests itself by the topical and also oral route both in normal animals and in animals in which the healing process has been slowed down by treatment with steroids; also recorded: superior to that of known drugs employed in this field
same,LD50,[3]; ip,> 6000 mg/kg
same,LD50,[3]; po,> 6000 mg/kg
same,acute toxicity (in words),"[3]; oral and intraperitoneal routes, mouse and rat",does not exhibit significant acute toxicity
same,Surface after 3 days of administrations (m ± s.e.),[4]; 50 mg/kg,280.47 ± 7.01 mm^2
same,percent variation of surface in comparison with prednisone controls,[4]; 50 mg/kg,-9.15%
same,Surface after 3 days of administrations (m ± s.e.),[4]; 100 mg/kg,271.82 ± 5.35 mm^2
same,percent variation of surface in comparison with prednisone controls,[4]; 100 mg/kg,-11.95%
same,Surface after 3 days of administrations (m ± s.e.),[4]; 200 mg/kg,265.88 ± 4.38 mm^2
same,percent variation of surface in comparison with prednisone controls,[4]; 200 mg/kg,-13.87%
same,Surface after 3 days of administrations (m ± s.e.),[4]; 400 mg/kg,259.99 ± 7.72 mm^2
same,percent variation of surface in comparison with prednisone controls,[4]; 400 mg/kg,-15.78%
same,reduction of the area of wounds (in words),"[4]; rats, Tables 2 and 3",favourable effect
same,Percent increase in comparison (with controls),[5]; 100 mg/kg,+32.5%
same,Tension (m + S.E.),[5]; 100 mg/kg,104.11 + 4.25 g
same,Percent increase in comparison (with controls),[5]; 200 mg/kg,+46.6%
same,Tension (m + S.E.),[5]; 200 mg/kg,115.12 + 4.90 g
same,Changes in U.I. in comparison with controls,[6]; 100 mg/kg,"-18,4"
same,No. of stomach without lesions,[6]; 100 mg/kg,0
same,Ulceration index (U.I.) mean,[6]; 100 mg/kg,"39,6"
same,Changes in U.I. in comparison with controls,[6]; 200 mg/kg,"-28,1"
same,No. of stomach without lesions,[6]; 200 mg/kg,0
same,Ulceration index (U.I.) mean,[6]; 200 mg/kg,"34,9"
same,Changes in U.I. in comparison with controls,[6]; 400 mg/kg,"-40,8"
same,No. of stomach without lesions,[6]; 400 mg/kg,0
same,Ulceration index (U.I.) mean,[6]; 400 mg/kg,"28,7"
same,anti-ulcer activity (in words),[6]; ulcer protection tests,active in ulcer protection tests; also recorded: particularly active as an anti-ulcer agent
same,vasotropic / venotonic activity (in words),[7]; capillary permeability and resistance,possesses a vasotropic activity in terms of modification of capillary permeability and resistance; also recorded: normalizing conditions of impaired capillary permeability and capillary fragility
same,Percent increase (capillary resistance) in comparison with controls,"[7]; oral 200 mg/kg × 3 days, 0 hours after third administration",5%
same,Percent increase (capillary resistance) in comparison with controls,"[7]; oral 200 mg/kg × 3 days, 2 hours after third administration",9%
same,Percent increase (capillary resistance) in comparison with controls,"[7]; oral 200 mg/kg × 3 days, 4 hours after third administration",9%
same,Percent increase (capillary resistance) in comparison with controls,"[7]; oral 200 mg/kg × 3 days, 6 hours after third administration",6%
same,Percent increase (capillary resistance) in comparison with controls,"[7]; oral 400 mg/kg × 3 days, 0 hours after third administration",7%
same,Percent increase (capillary resistance) in comparison with controls,"[7]; oral 400 mg/kg × 3 days, 2 hours after third administration",15%
same,Percent increase (capillary resistance) in comparison with controls,"[7]; oral 400 mg/kg × 3 days, 4 hours after third administration",14%
same,Percent increase (capillary resistance) in comparison with controls,"[7]; oral 400 mg/kg × 3 days, 6 hours after third administration",13%
same,"column headed by drawing 2 under MDA formation (ratio of hepatic microsomes IC50 to brain homogenate IC50, by arithmetic)",[8],1.8
same,IC50,[8],800 nM
same,anti-lipid peroxidation activity ex vivo (in words),[9],confirmed
same,acute toxicity (in words),[10],negligable acute toxicity
same,anti-lipid peroxidation activity (in words),[11],strong anti-lipid peroxidation activity
same,IC50,[11]; in vitro,450 nM
same,inhibition of MDA (malondialdehyde) formation (in words),"[11]; in vitro, rat brain homogenate and rat hepatic microsomes",strongly inhibited
same,Wound area (m ± s.e.),"[12]; concentration 1%, day 0 (baseline), n = 10",324.55 ± 3.77 mm^2
same,percent variation of wound area in comparison with prednisone controls,"[12]; concentration 1%, day 1",-8.17%
same,Wound area (m ± s.e.),"[12]; concentration 1%, day 1, n = 10",317.39 ± 3.37 mm^2
same,percent variation of wound area in comparison with prednisone controls,"[12]; concentration 1%, day 2",-9.70%
same,Wound area (m ± s.e.),"[12]; concentration 1%, day 2, n = 10",315.04 ± 3.58 mm^2
same,percent variation of wound area in comparison with prednisone controls,"[12]; concentration 1%, day 3",-9.60%
same,Wound area (m ± s.e.),"[12]; concentration 1%, day 3, n = 10",308.01 ± 3.77 mm^2
same,Wound area (m ± s.e.),"[12]; concentration 2%, day 0 (baseline), n = 10",327.71 ± 2.92 mm^2
same,percent variation of wound area in comparison with prednisone controls,"[12]; concentration 2%, day 1",-8.17%
same,Wound area (m ± s.e.),"[12]; concentration 2%, day 1, n = 10",317.39 ± 3.36 mm^2
same,percent variation of wound area in comparison with prednisone controls,"[12]; concentration 2%, day 2",-12.38%
same,Wound area (m ± s.e.),"[12]; concentration 2%, day 2, n = 10",305.69 ± 3.89 mm^2
same,percent variation of wound area in comparison with prednisone controls,"[12]; concentration 2%, day 3",-15.88%
same,Wound area (m ± s.e.),"[12]; concentration 2%, day 3, n = 10",286.62 ± 3.74 mm^2
same,LD50,[13]; ip,> 3000 mg/kg
same,LD50,[13]; po,> 6000 mg/kg
"O=c1c(O)c(-c2ccc(O)c(O)c2)oc2cc(O)cc(O)c12 [Quercetin, reference compound]",IC50,[1],17000 nM
same,"column headed by drawing 3 (hepatic microsomes) (ratio of NADPH consumption IC50 to MDA formation IC50, by arithmetic)",[1]; hepatic microsomes,3.3
same,"column headed by drawing 2 under MDA formation (ratio of hepatic microsomes IC50 to brain homogenate IC50, by arithmetic)",[8],5.7
same,IC50,[8],5100 nM
same,IC50,[11]; in vitro,900 nM
